Read-outs that look alike come from different tables or passages of the source.
Legend:
[1] = system: SW620 (Colon) tumor cells; assay: alamarBlue growth inhibition, SW620; format: cell-based, human; conditions: Homo sapiens, SW-620, 120 hours
Description: (§1) Growth Inhibition Studies. Cells growing exponentially were transferred to 384-well flat bottom tissue culture plates. All cell types were plated at a density of 500 cells per well in 25 μL of complete medium (RPMI 1640+10% fetal bovine serum+antibiotics/antimycotics). After 24 hours (day 0), 25 μL of complete medium containing the experimental compounds over the dose range of 10^ñ3 to 10^ñ10 M were added in triplicate. […] 5 μL of the redox indicator, alamarBlue, was added to each well (10% v/v). After 4 hours incubation at 37° C., fluorescence was monitored at 535 nm excitation and 595 nm emission.
(§2) Concentration vs. relative fluorescence units (RFU) were plotted, and sigmoid curves were fit using the Hill equation.

[2] = system: NPRSC (Prostate) normal cells; assay: alamarBlue growth inhibition, NPRSC; format: cell-based, human; conditions: Homo sapiens, 120 hours
Description: as §1, §2

[3] = system: NHOST (Bone) normal cells; assay: alamarBlue growth inhibition, NHOST; format: cell-based, human; conditions: Homo sapiens, 120 hours
Description: as §1, §2

[4] = system: COLO320 (Colon) tumor cells; assay: alamarBlue growth inhibition, COLO320; format: cell-based, human; conditions: Homo sapiens, COLO 320, 120 hours
Description: as §1, §2

[5] = system: H527 (Skin) normal cells; assay: alamarBlue growth inhibition, H527; format: cell-based, human; conditions: Homo sapiens, 120 hours
Description: as §1, §2

[6] = system: NHEPF (Liver) normal cells; assay: alamarBlue growth inhibition, NHEPF; format: cell-based, human; conditions: Homo sapiens, 120 hours
Description: as §1, §2

[7] = system: HT1080 (Colon) tumor cells; assay: alamarBlue growth inhibition, HT1080; format: cell-based, human; conditions: Homo sapiens, HT-1080, 120 hours
Description: as §1, §2

[8] = system: SKLU1 (Lung) tumor cells; assay: alamarBlue growth inhibition, SKLU1; format: cell-based, human; conditions: Homo sapiens, SK-LU-1, 120 hours
Description: as §1, §2

[9] = system: SKHEP1 (Liver) tumor cells; assay: alamarBlue growth inhibition, SKHEP1; format: cell-based, human; conditions: Homo sapiens, SK-HEP1, 120 hours
Description: as §1, §2

[10] = system: NCI H520 (Lung) tumor cells; assay: alamarBlue growth inhibition, NCI H520; format: cell-based, human; conditions: Homo sapiens, 120 hours
Description: as §1, §2

[11] = system: SW527 (Breast) tumor cells; assay: alamarBlue growth inhibition, SW527; format: cell-based, human; conditions: Homo sapiens, 120 hours
Description: as §1, §2

[12] = system: MRC9 (Lung) normal cells; assay: alamarBlue growth inhibition, MRC9; format: cell-based, human; conditions: Homo sapiens, 120 hours
Description: as §1, §2

[13] = H630-10 5-FU resistant colon carcinoma xenografts in athymic mice; conditions: female, CD-1 (nu/nu) athymic, mouse, in vivo, ip
Description: Tumor measurements began on the first day of treatment (Day 1).
Following cell expansion ex-vivo H630-10 were injected subcutaneously (S.Q.) at 1.5×10^7 cells/tumor in the mid-back region of 4-6 week old, female, CD-1 (nu/nu), athymic mice (Charles River Laboratories, Wilmington, Mass.). Tumor volumes, calculated as the product of length, width, and depth, were monitored twice weekly by serial micrometer measurements by a single observer. Six animals were randomly assigned to each treatment group and statistical tests were performed (single-factor ANOVA) to assure uniformity in starting tumor volumes between treatment and control groups at the beginning of the experiment. […] To assure accurate dosing, drug doses were individualized based upon animal weights determined immediately prior to each injection. […] Differences in day 25 xenograft volumes between groups were analyzed by single-factor ANOVA of the log transformed tumor volume data.

[14] = system: SKOV3 (Ovary) tumor cells; assay: alamarBlue growth inhibition, SKOV3; format: cell-based, human; conditions: Homo sapiens, SK-OV-3, 120 hours
Description: as §1, §2

[15] = system: SKCO1 (Colon) tumor cells; assay: alamarBlue growth inhibition, SKCO1; format: cell-based, human; conditions: Homo sapiens, SK-CO-1, 120 hours
Description: as §1, §2

[16] = system: NHDF (Skin) normal cells; assay: alamarBlue growth inhibition, NHDF; format: cell-based, human; conditions: Homo sapiens, 120 hours
Description: as §1, §2

[17] = system: COLO205 (Colon) tumor cells; assay: alamarBlue growth inhibition, COLO205; format: cell-based, human; conditions: Homo sapiens, COLO 205, 120 hours
Description: as §1, §2

[18] = system: SOAS2 (Bone) tumor cells; assay: alamarBlue growth inhibition, SOAS2; format: cell-based, human; conditions: Homo sapiens, 120 hours
Description: as §1, §2

[19] = system: NHA (Brain) normal cells; assay: alamarBlue growth inhibition, NHA; format: cell-based, human; conditions: Homo sapiens, 120 hours
Description: as §1, §2

[20] = system: CCD18co normal colon epithelial cells; assay: alamarBlue growth inhibition, CCD18co; format: cell-based, human; conditions: Homo sapiens, CCD-18Co; Normal Cells: CCD1800 (Colon); alamarBlue, 120 hours
Description: as §1, §2

[21] = system: MDAMB468 (Breast) tumor cells; assay: alamarBlue growth inhibition, MDAMB468; format: cell-based, human; conditions: Homo sapiens, MDA-MB-468, 120 hours
Description: as §1, §2

[22] = system: H630R10 5FU-resistant colon tumor cells; assay: alamarBlue growth inhibition, H630R10; format: cell-based, human; conditions: Homo sapiens; Tumor Cells: H630R10 (Colon); alamarBlue, 120 hours; read-out: IC50
Description: as §1, §2

[23] = system: HEPG2 (Liver) tumor cells; assay: alamarBlue growth inhibition, HEPG2; format: cell-based, human; conditions: Homo sapiens, 120 hours
Description: as §1, §2

[24] = system: normal and tumor cell types; assay: cells; conditions: Homo sapiens
Description: Growth Inhibition Studies. Cells growing exponentially were transferred to 384-well flat bottom tissue culture plates. All cell types were plated at a density of 500 cells per well in 25 μL of complete medium (RPMI 1640+10% fetal bovine serum+antibiotics/antimycotics). After 24 hours (day 0), 25 μL of complete medium containing the experimental compounds over the dose range of 10^ñ3 to 10^ñ10 M were added in triplicate. Drug exposure time was 120 hours (day 5), after which growth inhibition was assayed. 5 μL of the redox indicator, alamarBlue, was added to each well (10% v/v). After 4 hours incubation at 37° C., fluorescence was monitored at 535 nm excitation and 595 nm emission.
as §2
Assays were carried out as described in Methods, above. Therapeutic index is calculated as the ratio of the average IC50 for normal cells to the average IC50 for tumor cells. All assays were done at least three times.

[25] = system: PANC1 (Pancreas) tumor cells; assay: alamarBlue growth inhibition, PANC1; format: cell-based, human; conditions: Homo sapiens, PANC-1, 120 hours
Description: as §1, §2

[26] = system: NHLF (Lung) normal cells; assay: alamarBlue growth inhibition, NHLF; format: cell-based, human; conditions: Homo sapiens, 120 hours
Description: as §1, §2

[27] = system: HCTC (Colon) tumor cells; assay: alamarBlue growth inhibition, HCTC; format: cell-based, human; conditions: Homo sapiens, 120 hours
Description: as §1, §2

[28] = system: MCIxc (Brain) tumor cells; assay: alamarBlue growth inhibition, MCIxc; format: cell-based, human; conditions: Homo sapiens, MC-IXC, 120 hours
Description: as §1, §2

[29] = system: DET551 (Skin) normal cells; assay: alamarBlue growth inhibition, DET551; format: cell-based, human; conditions: Homo sapiens, 120 hours
Description: as §1, §2

[30] = system: W138 (Lung) normal cells; assay: alamarBlue growth inhibition, W138; format: cell-based, human; conditions: Homo sapiens, 120 hours
Description: as §1, §2

[31] = system: A431 (Skin) tumor cells; assay: alamarBlue growth inhibition, A431; format: cell-based, human; conditions: Homo sapiens, A-431, 120 hours
Description: as §1, §2

[32] = system: PC3 (Prostate) tumor cells; assay: alamarBlue growth inhibition, PC3; format: cell-based, human; conditions: Homo sapiens, 120 hours
Description: as §1, §2

[33] = system: MDAMB361 (Breast) tumor cells; assay: alamarBlue growth inhibition, MDAMB361; format: cell-based, human; conditions: Homo sapiens, MDA-MB-361, 120 hours
Description: as §1, §2

Question: What does the source list for O=c1[nH]cc(F)c(=O)[nH]1 [5FU, 5-fluorouracil]?
Answer: IC50 [1]: 4.6 µM; IC50 [2]: 1.7 µM; IC50 [3]: 4.7 µM; IC50 [4]: 1.5 µM; IC50 [5]: 1.6 µM; IC50 [6]: 1.7 µM; IC50 [7]: 0.8 µM; IC50 [8]: 7.9 µM; IC50 [9]: 1.7 µM; IC50 [10]: 0.6 µM; IC50 [11]: 4.3 µM; IC50 [12]: 1.1 µM; MTD at 5 days [13]: 15 mg/kg; IC50 [14]: 3 µM; IC50 [15]: 1.4 µM; IC50 [16]: 0.8 µM; IC50 [17]: 1.3 µM; IC50 [18]: 1.4 µM; IC50 [19]: 0.9 µM; IC50 [20]: 2 µM; IC50 [21]: 4.4 µM; IC50 [22]: 41.6 µM; IC50 [23]: 22.8 µM; IC50 ([24]; read-out: IC50 (μM), Average, average of the 11 normal cell types): 1.6 µM; IC50 ([24]; read-out: IC50 (μM), Average, average of the 21 tumor cell lines): 5.3 µM; IC50 [25]: 1.9 µM; IC50 [26]: 0.9 µM; IC50 [27]: 2.8 µM; IC50 [28]: 1.2 µM; IC50 [29]: 0.8 µM; IC50 [30]: 1 µM; IC50 [31]: 0.2 µM; IC50 [32]: 0.9 µM; IC50 [33]: 5 µM
